From US20170101385A1, “NOVEL ISOXAZOLES, A PROCESS FOR THEIR PREPARATION AND USES THEREOF” (Sanko Tekstil Isletmeleri San. Ve Tic. A.S., priority 2015, published 2017)

System: Staphylococcus aureus ATCC 6538
Experiment: Antibacterial test on treated fabric (AATCC 147:2011; washing standard BS EN ISO 6330 5A)
Assay type: cell-based
Design: key to Bacteria Growth: (—): no bacterial colonies directly under the treated sample in the contact area were observed
Details: 37° C. ± 2° C., 18-24 hrs, no washing; for Bacteria Growth: directly under the treated fabric sample in the contact area; for Inhibition Zone (width of clear zone of inhibition): woven fabric treated with the compound, sample 25 × 50 mm
Experimental: In order to determine if the antimicrobic activity of the textile fabrics, Washing Standart: BS EN ISO 6330 5A and Antibacterial Test Standart: AATCC 147:2011 were followed. Details of the method are given in the experimental section of the description.
• Antibacterial tests were carried out using Washing Standart: BS EN ISO 6330 5A, and Antibacterial Test Standart: AATCC 147:2011.

Compound | Bacteria Growth | Inhibition Zone (width of clear zone of inhibition)
Cc1cc(/N=C/c2cccc3ccccc23)on1 [Example 1, 3-methyl-N-(1-naphthalenylmethylen)-5-isoxazolamine] | (—) | 0 mm
Cc1cc(/N=C/c2ccc3ccccc3c2)on1 [Example 2, 3-methyl-N-(2-naphthalenylmethylen)-5-isoxazolamine] | (—) | 0 mm
Cc1cc(/N=C/c2cc3ccccc3c3ccccc23)on1 [Example 3, 3-methyl-N-(9-phenanthrenylmethylen)-5-isoxazolamine] | (—) | 0 mm
